# Tests used:
# Aspergillus flavus [1] = test: Antifungal activity against Aspergillus flavus by liquid dilution method; assay type: functional
# Streptococcus pyogenes [2] = test: Antibacterial activity against Streptococcus pyogenes at 1000 ug/mL after 72 hrs by agar diffusion assay; assay type: functional; conditions: read-out: IZ
# Bacillus subtilis [3] = test: Antibacterial activity against Bacillus subtilis at 1000 ug/mL after 72 hrs by agar diffusion assay; assay type: functional; conditions: read-out: IZ
# Salmonella typhimurium [4] = test: Antibacterial activity against Salmonella Typhimurium at 1000 ug/mL after 72 hrs by agar diffusion assay; assay type: functional, Salmonella enterica subsp. enterica serovar Typhimurium; conditions: Salmonella enterica, read-out: IZ
# Klebsiella pneumoniae [5] = test: Antibacterial activity against Klebsiella pneumoniae by liquid dilution method; assay type: functional
# Aspergillus niger [6] = test: Antifungal activity against Aspergillus niger at 1000 ug/mL after 72 hrs by agar diffusion assay; assay type: functional; conditions: read-out: IZ
# Streptococcus pyogenes [7] = test: Antibacterial activity against Streptococcus pyogenes by liquid dilution method; assay type: functional
# Escherichia coli [8] = test: Antibacterial activity against Escherichia coli at 1000 ug/mL after 72 hrs by agar diffusion assay; assay type: functional; conditions: read-out: IZ
# Candida albicans [9] = test: Antifungal activity against Candida albicans by liquid dilution method; assay type: functional
# Aspergillus niger [10] = test: Antifungal activity against Aspergillus niger by liquid dilution method; assay type: functional
# Staphylococcus aureus [11] = test: Antibacterial activity against Staphylococcus aureus by liquid dilution method; assay type: functional
# Staphylococcus aureus [12] = test: Antibacterial activity against Staphylococcus aureus at 1000 ug/mL after 72 hrs by agar diffusion assay; assay type: functional; conditions: read-out: IZ
# Bacillus subtilis [13] = test: Antibacterial activity against Bacillus subtilis by liquid dilution method; assay type: functional
# Salmonella typhimurium [14] = test: Antibacterial activity against Salmonella Typhimurium by liquid dilution method; assay type: functional, Salmonella enterica subsp. enterica serovar Typhimurium; conditions: Salmonella enterica
# Aspergillus flavus [15] = test: Antifungal activity against Aspergillus flavus at 1000 ug/mL after 72 hrs by agar diffusion assay; assay type: functional; conditions: read-out: IZ
# Candida albicans [16] = test: Antifungal activity against Candida albicans at 1000 ug/mL after 72 hrs by agar diffusion assay; assay type: functional; conditions: read-out: IZ
# Klebsiella pneumoniae [17] = test: Antibacterial activity against Klebsiella pneumoniae at 1000 ug/mL after 72 hrs by agar diffusion assay; assay type: functional; conditions: read-out: IZ
# Escherichia coli [18] = test: Antibacterial activity against Escherichia coli by liquid dilution method; assay type: functional
SMILES,MIC (Aspergillus flavus [1]) [µg/mL],MIC (Klebsiella pneumoniae [5]) [µg/mL],MIC (Streptococcus pyogenes [7]) [µg/mL],MIC (Candida albicans [9]) [µg/mL],MIC (Aspergillus niger [10]) [µg/mL],MIC (Staphylococcus aureus [11]) [µg/mL],MIC (Bacillus subtilis [13]) [µg/mL],MIC (Salmonella typhimurium [14]) [µg/mL],MIC (Escherichia coli [18]) [µg/mL],zone of inhibition at 1000 µg/mL (Streptococcus pyogenes [2]) [mm],zone of inhibition at 1000 µg/mL (Bacillus subtilis [3]) [mm],zone of inhibition at 1000 µg/mL (Salmonella typhimurium [4]) [mm],zone of inhibition at 1000 µg/mL (Aspergillus niger [6]) [mm],zone of inhibition at 1000 µg/mL (Escherichia coli [8]) [mm],zone of inhibition at 1000 µg/mL (Staphylococcus aureus [12]) [mm],zone of inhibition at 1000 µg/mL (Aspergillus flavus [15]) [mm],zone of inhibition at 1000 µg/mL (Candida albicans [16]) [mm],zone of inhibition at 1000 µg/mL (Klebsiella pneumoniae [17]) [mm]
CC1(C)S[C@@H]2[C@H](NC(=O)[C@H](N)c3ccccc3)C(=O)N2[C@H]1C(=O)O [AMPICILLIN],–,10,25,–,–,10,20,10,15,35,39,45,–,40,48,–,–,45
O=c1oc2ccccc2cc1-c1nc2ccccc2c2nc3c4nsnc4ccc3n12,35,35,45,45,40,50,50,30,45,22,32,24,22,26,31,35,26,27
O=c1oc2c(Br)cc(Br)cc2cc1-c1nc2ccccc2c2nc3c4nsnc4ccc3n12,35,5,15,40,25,5,10,2.5,10,37,41,45,34,42,48,37,32,46
O=c1oc2ccc([N+](=O)[O-])cc2cc1-c1nc2ccccc2c2nc3c4nsnc4ccc3n12,25,45,30,30,35,35,45,35,35,29,30,29,36,31,27,44,38,27
O=c1oc2c(Cl)cc(Cl)cc2cc1-c1nc2ccccc2c2nc3c4nsnc4ccc3n12,50,35,35,45,40,35,45,25,30,20,34,31,33,32,39,29,26,34
Cc1cccc2cc(-c3nc4ccccc4c4nc5c6nsnc6ccc5n34)c(=O)oc12,40,25,45,35,50,40,50,30,45,24,26,29,28,20,29,33,30,32
O=c1oc2c(Br)cccc2cc1-c1nc2ccccc2c2nc3c4nsnc4ccc3n12,50,25,40,35,35,30,40,35,35,23,29,29,31,31,35,33,29,30
CC(=O)N1CCN(c2ccc(OCC3COC(Cn4ccnc4)(c4ccc(Cl)cc4Cl)O3)cc2)CC1 (centres undefined) [KETOCONAZOLE],15,–,–,25,15,–,–,–,–,–,–,–,45,–,–,43,40,–

# More lines, main results first:
MIC (Aspergillus flavus [1]) [µg/mL],MIC (Klebsiella pneumoniae [5]) [µg/mL],MIC (Streptococcus pyogenes [7]) [µg/mL],MIC (Candida albicans [9]) [µg/mL],MIC (Aspergillus niger [10]) [µg/mL],MIC (Staphylococcus aureus [11]) [µg/mL],MIC (Bacillus subtilis [13]) [µg/mL],MIC (Salmonella typhimurium [14]) [µg/mL],MIC (Escherichia coli [18]) [µg/mL],SMILES,zone of inhibition at 1000 µg/mL (Streptococcus pyogenes [2]) [mm],zone of inhibition at 1000 µg/mL (Bacillus subtilis [3]) [mm],zone of inhibition at 1000 µg/mL (Salmonella typhimurium [4]) [mm],zone of inhibition at 1000 µg/mL (Aspergillus niger [6]) [mm],zone of inhibition at 1000 µg/mL (Escherichia coli [8]) [mm],zone of inhibition at 1000 µg/mL (Staphylococcus aureus [12]) [mm],zone of inhibition at 1000 µg/mL (Aspergillus flavus [15]) [mm],zone of inhibition at 1000 µg/mL (Candida albicans [16]) [mm],zone of inhibition at 1000 µg/mL (Klebsiella pneumoniae [17]) [mm]
40,30,30,35,25,35,45,25,25,O=c1oc2ccccc2cc1-c1nc2ccccc2c2nc3ccccc3n12,23,31,32,34,38,36,32,27,34
10,25,35,40,40,40,40,35,45,O=c1oc2c(Br)cccc2cc1-c1nc2ccccc2c2nc3ccccc3n12,27,28,29,37,28,39,45,32,31
15,35,20,15,20,40,50,30,15,O=c1oc2c(Br)cc(Br)cc2cc1-c1nc2ccccc2c2nc3ccccc3n12,36,34,36,48,41,39,46,41,38
35,5,10,50,35,2.5,10,2.5,10,O=c1oc2c(Cl)cc(Cl)cc2cc1-c1nc2ccccc2c2nc3ccccc3n12,38,42,48,38,44,50,38,39,47
35,30,45,45,50,30,45,20,40,Cc1cccc2cc(-c3nc4ccccc4c4nc5ccccc5n34)c(=O)oc12,24,30,35,27,32,32,35,32,31
45,40,40,50,45,35,10,25,30,O=c1oc2ccc([N+](=O)[O-])cc2cc1-c1nc2ccccc2c2nc3ccccc3n12,28,27,32,29,35,24,30,27,29

# — ChEMBL document CHEMBL1641588, “3-[Benzimidazo- and 3-[benzothiadiazoleimidazo-(1,2-c)quinazolin-5-yl]-2H-chromene-2-ones as potent antimicrobial agents” (2011)
